Experimental data published in article PMC4269550, “Lead Optimization of a Pyrazole Sulfonamide Series of Trypanosoma bruceiN-Myristoyltransferase Inhibitors: Identification and Evaluation of CNS Penetrant Compounds as Potential Treatments for Stage 2 Human African Trypanosomiasis” (Journal of Medicinal Chemistry, 2014).
“And” between values parts separate entries of the source, which are not always exact repeats. Identical values can stand only once. Like-named read-outs stand apart in the source and are kept apart here.

Assays:
[1] = tested on: T. b. brucei, BSF427, VSG118; assay: Cell viability assay, trypanosome; assay type: cell-based; conditions: for ~EC99: T. brucei
Mouse pharmacokinetics = assay type: in vivo; conditions: for Cmax / AUC(0-t): female, NMRI, whole blood, mouse; for Cmax: oral dose 50mg/kg; for AUC(0-t): 10 mg/kg po, read-out: AUC0–8 (converted)
Experimental: Test compound was dosed as a bolus solution intravenously at 3 mg free base/kg (dose volume, 5 mL/kg; dose vehicle, saline or 5% DMSO; 40% PEG400; 55% saline) to female NMRI mice (n = 3) or dosed orally by gavage as a solution at 10 and/or 50 mg free base/kg (dose volume, 5 mL/kg; dose vehicle, 5% DMSO; 95% distilled water or 5% DMSO; 40% PEG400; 55% distilled water) to female NMRI mice (n = 3/dose level). Female NMRI mice were chosen as these represent the sex and strain used for the stage 1 and stage 2 HAT efficacy models. Blood samples were taken from each mouse at 2 (IV only), 5 (IV only), 15, and 30 min, 1, 2, 4, 6, 8, and 24 (po only) hours postdose and mixed with two volumes of distilled water. After suitable sample preparation, the concentration of test compound in blood was determined by UPLC-MS/MS using a Quattro Premier XE (Waters, USA). Pharmacokinetic parameters were derived from the mean blood concentration time curve using PKsolutions software v 2.0 (Summit Research Services, USA).

T. b. brucei S427 = assay: Stage 1 HAT mouse efficacy model, T. b. brucei S427; assay type: in vivo; conditions: for Activity in stage 1 mouse model: T. b. brucei S427, 50 mg/kg b.i.d. po for 4 days; for stage 1 HAT minimal curative dose, T. b. brucei S427: b.i.d. po, mouse
T. b. brucei GVR35 [2] = assay type: in vivo; conditions: for toxicity in infected mice in stage 2 model: dosed at the MTD b.i.d. po for 5 days, mice affected
Source text: NMRI mice used in the experiment were purchased from Harlan, UK. Mice were maintained under standard temperature/lighting conditions and given food and water ad libitum. The trypanosomes used in this study were of the cloned stabilate T. b. brucei GVR35, originally derived from trypanosomes isolated from a wildebeest in the Serengeti in 1966.[31] By 13 days postinfection, parasites entered the CNS.[32] If treatment is delayed until 21 days after infection, successful cure is therefore dependent on the ability of the compound to penetrate through the blood–brain barrier.[33] This model is widely used to evaluate the efficacy of new compounds for treatment against stage 2 HAT.[34]
Cryopreserved T. b. brucei GVR35 trypomastigotes were diluted to ∼5 × 10^4 cells/mL in 20 mM Hanks Balanced Salt Solution with glucose, and 0.2 mL of that dilution was used for infection (∼1 × 10^4 cells/mL per animal). All animals in the groups were intraperitoneally infected (ip) on day 0. After infection, parasitaemia was monitored by examination of tail blood smears. On day 21, post infection animals were randomly allocated to five mice per group. Infected animals were dosed with one of the following: diaminazene diaceturate (ip), 40 mg/kg once only as a HAT stage 1 control (early stage tyrypanocide to clear the parasites in the systemic circulation and in tissues other than CNS); Melasoprol (ip), 10 mg/kg once daily for 5 days as a positive control for HAT stage 2; […]. One group of five mice was an untreated control group. The dose solutions were prepared daily, using 5% DMSO:40% PEG400:55% Milli-Q water for compound (i.e., 40) and 10% DMSO:90% peanut oil for control drugs. To measure the response to treatment, parasitaemia was monitored twice per week until day 50. After day 50, the mice were checked only once per week until day 180 post treatment. Mice surviving to the end of experiment and blood smear aparasitaemic were considered cured.

[3] = In vitro metabolite identification with mouse microsomes; assay type: in vitro ADME; conditions: for % Parent remaining (t = 15 min): 5µM, 15 min at 37°C, mouse liver microsomes; for sulfonamide N-dealkylation on incubation with mouse microsomes: words
[4] = Dose calculations for in vivo efficacy studies (brain concentration, brain free fraction); conditions: for oral dose needed to deliver stage 2 cures (Dose required): b.i.d., calculated to keep brain free concentration above T. brucei EC99
Experimental: isofluorane. A blood sample was taken by cardiac puncture into two volumes of distilled water and the brain removed. After suitable sample preparation, the concentration of 1 in blood and brain was determined by UPLC/MS/MS using a Quattro Premier XE (Waters, USA). For each rat, the concentration in brain (ng/g) was divided by the concentration in blood (ng/mL) to give a brain:blood (B:B) ratio. The mean value obtained was quoted. A higher B:B ratio in animals pre-treated with GF120918 is indicative of a Pgp substrate.
Dose calculations for in vivo efficacy studies.
Property Compound 40 Compound 46 Compound 42
Oral Dose 50mg/kg 50mg/kg 50mg/kg

[5] = Maximum tolerated dose in mice; conditions: mouse, in vivo
in vitro = assay type: cell-based, human; conditions: human; read-out: MRC-5 EC50
Mouse brain penetration = assay type: in vivo; conditions: female, NMRI, brain and blood, intravenous, 2 mg free base/kg, read-out: B:B (brain:blood ratio in mouse)
[6] = tested on: T. b. rhodesiense STIB900; assay: Stage 1 HAT mouse efficacy model, T. b. rhodesiense STIB900; assay type: in vivo; conditions: b.i.d. po for 4 days
[7] = Intrinsic clearance (Cli), mouse liver microsomes; assay type: in vitro ADME; conditions: for Cli: mouse microsomes
[8] = Rat hepatic portal vein study; assay type: in vivo; conditions: male Sprague–Dawley rat, 3 mg/kg orally
Experimental: aIC50 values are shown as mean values of two or more determinations. bCompounds with Hill slopes […]
Rat hepatic portal vein study protocol.
10mL/kg; Dose vehicle: 5% DMSO; 40% PEG400; 55% distilled water) to male Sprague-Dawley rats (n=7). A single rat was placed under terminal anaesthesia with isofluorane at 15 and 30 minutes, 1, 2, 4, 6 and 8 hours post-dose and a blood sample taken from the hepatic portal vein and the heart, each mixed with two volumes of distilled water. After suitable sample preparation, the concentration of compound 33 in all blood samples was determined by UPLC/MS/MS using a Quattro Premier XE (Waters, USA). The hepatic portal vein and cardiac blood concentration time profile is presented in Figure S2. Pharmacokinetic parameters were derived from the blood concentration time profiles using PKsolutions software v 2.0 (Summit Research Services, USA).

P-glycoprotein = assay: Rat brain penetration study +/- GF120918; conditions: in vivo
T. b. brucei GVR35 [9] = assay: Acute mouse model of T. b. brucei GVR35; assay type: in vivo

## Cc1nn(C)c(C)c1N(C(F)F)S(=O)(=O)c1c(Cl)cc(CCCC2CCN(C)CC2)cc1Cl [compound 40, 2,6-Dichloro-N-(difluoromethyl)-4-(3-(1-methylpiperidin-4-yl)propyl)-N-(1,3,5-trimethyl-1H-pyrazol-4-yl)benzenesulfonamide]
[1]
  ~EC99: […]
Mouse pharmacokinetics
  Cmax: 0.661 µg/mL
Mouse pharmacokinetics; words
  oral exposure in mouse: good oral exposure
T. b. brucei S427
  Activity in stage 1 mouse model: fully curative
T. b. brucei GVR35 [2]
  toxicity in infected mice in stage 2 model: 1/5
T. b. brucei GVR35 [2]; the two 100 mg/kg extended dosing schedules (8 days; 3 x 3 days pulsed)
  efficacy in stage 2 model (mice cured): 1/5
T. b. brucei GVR35 [2]; words
  efficacy in a stage 2 (CNS) mouse model of HAT: partial efficacy
[3]
  % Parent remaining (t = 15 min): 67%
  sulfonamide N-dealkylation on incubation with mouse microsomes: did not undergo sulfonamide N-dealkylation
[4]
  oral dose needed to deliver stage 2 cures (Dose required): 20 mg/kg
[4]; mouse, in vivo
  fraction unbound: 0.019
[4]; oral dose 50mg/kg
  Conc in brain: 1031 ng/g
  Free brain conc: 19.6 ng/g
[5]; po
  MTD at 1 day: 100 mg/kg

## Cc1nn(C)c(C)c1NS(=O)(=O)c1ccc(-c2ccnc(N3CCNCC3)c2)cc1 [compound 55]
[1]; Trypanosoma brucei
  EC50: 0.004 µM
In vitro
  EC50: 1.4 µM
Mouse brain penetration
  Kp: 0.1

## Cc1c(NS(=O)(=O)c2c(Cl)cc(-c3ccnc(N4CCNCC4)c3)cc2Cl)c(CC(C)C)nn1C [compound 6]
Mouse pharmacokinetics
  AUC(0-t): 56.7 µg·h/mL
[6]
  stage 1 HAT minimal curative dose, T. b. rhodesiense STIB900: 6 mg/kg
[5]; po
  MTD: 20 mg/kg

## Cc1nn(C)c(C)c1N(CC(F)(F)F)[S+](=O)([O-])c1c(Cl)cc(CCCC2CCN(C)CC2)cc1Cl [compound 42]
[1]
  ~EC99: ~56 nM and ~31 ng/mL
[7]; mouse liver microsomes
  Cli (mouse): 1.1 mL min^–1 g^–1
[7]
  Cli: 1.1 mL/min/g
Mouse pharmacokinetics
  Cmax: 0.876 µg/mL
T. b. brucei S427
  Activity in stage 1 mouse model: fully curative
T. b. brucei GVR35 [2]; T. b. brucei GVR35, 150 mg/kg b.i.d. po for 5 days
  cures in stage 2 model: none of the mice were cured
T. b. brucei GVR35 [2]
  toxicity in infected mice in stage 2 model: well tolerated
[4]; NMRI, mouse, in vivo, oral dose 50mg/kg, read-out: Free brain conc at 8 hours post-dose
  concentration at 8 h: 6.2 ng/g
[4]
  oral dose needed to deliver stage 2 cures (Dose required): 250 mg/kg
[4]; mouse, in vivo
  fraction unbound: 0.032
[4]; oral dose 50mg/kg
  Conc in brain: 569 ng/g
  Free brain conc: 18.2 ng/g
[5]
  MTD at 1 day: > 200 mg/kg

## Cc1nn(C)c(C)c1N(C)S(=O)(=O)c1c(Cl)cc(CCCN2CCN(C)CC2)cc1Cl [compound 33]
[7]; mouse liver microsomes
  Cli (mouse): 7.4 mL min^–1 g^–1
[7]
  Cli: 7.4 mL/min/g
[3]
  % Parent remaining (t = 15 min): 6%
  sulfonamide N-dealkylation on incubation with mouse microsomes: N-dealkylated sulfonamide as the predominant metabolite
[8]
  hepatic extraction of the parent: almost total hepatic extraction

## Cc1nn(C)c(C)c1NS(=O)(=O)c1c(Cl)cc(-c2ccnc(N3CCNCC3)c2)cc1Cl [compound 1, 2,6-Dichloro-4-(2-piperazin-1-yl-pyridin-4-yl)-N-(1,3,5-trimethyl-1H-pyrazol-4-yl)-benzenesulfonamide]
[7]; Table S1, unit not given
  Cli (mouse): 0.6
[7]; mouse liver microsomes
  Cli (mouse): < 1.0 mL min^–1 g^–1
Mouse pharmacokinetics
  AUC(0-t): 6.53 µg·h/mL
T. b. brucei S427
  stage 1 HAT minimal curative dose, T. b. brucei S427: 12.5 mg/kg
[6]
  stage 1 HAT minimal curative dose, T. b. rhodesiense STIB900: 50 mg/kg
P-glycoprotein
  P-glycoprotein substrate: substrate for P-glycoprotein

## Cc1nn(C)c(C)c1N(C(F)F)S(=O)(=O)c1c(Cl)cc(CCCCC2CCN(C)CC2)cc1Cl [compound 46]
[1]
  ~EC99: ~2 nM and ~1.1 ng/mL
Mouse pharmacokinetics
  Cmax: 0.708 µg/mL
T. b. brucei S427
  stage 1 HAT minimal curative dose, T. b. brucei S427: 6 mg/kg
T. b. brucei GVR35 [2]
  toxicity in infected mice in stage 2 model: 2/5
T. b. brucei GVR35 [2]; extended 50 mg/kg dose regimen
  toxicity in stage 2 model: significant toxicity
T. b. brucei GVR35 [2]; extended regimens: 25 mg/kg b.i.d. for 10 days, 50 mg/kg b.i.d. po for 8 days
  cures in stage 2 model: no cures
[4]
  oral dose needed to deliver stage 2 cures (Dose required): 15 mg/kg
[4]; mouse, in vivo
  fraction unbound: 0.01
[4]; oral dose 50mg/kg
  Conc in brain: 935 ng/g
  Free brain conc: 9.4 ng/g
T. b. brucei GVR35 [9]; b.i.d. po for 4 days
  minimum curative dose, acute model of T. b. brucei GVR35: 25 mg/kg
T. b. brucei GVR35 [9]; in vivo
  reduction in efficacy, T. b. brucei GVR35 compared to S427: ~4 fold
[5]; po
  MTD at 1 day: 50 mg/kg
